In the NIST ThermoML archive (doi:10.1016/j.tca.2010.07.023):
± gives the expanded uncertainty stated by the source.

Key:
[1] = Molar enthalpy of transition or fusion; conditions: DSC
[2] = DTA

Row | Structure (SMILES) | Molar enthalpy of transition or fusion ([1]; Crystal 1) | Molar enthalpy of transition or fusion ([1]; Crystal 2) | Molar enthalpy of transition or fusion ([1]; Crystal 3) | Triple point temperature ([2]; Crystal 1) | Triple point temperature ([2]; Crystal 2) | Triple point temperature ([2]; Crystal 3)
1 | CC12CCC(CC1=O)C2(C)C (configuration not stated) [1,7,7-trimethylbicyclo[2.2.1]-2-heptanone] | 1.41 ± 0.0717 kcal/mol | 0.0406 ± 0.0239 kcal/mol | 0.311 ± 0.0717 kcal/mol | 448 ± 1.5 K | 364 ± 5 K | 206.1 ± 1.4 K
2 | CC1(C)[C@@H]2CC[C@@]1(C)C(=O)C2 [d-camphor] | 1.51 ± 0.12 kcal/mol | 0.0382 ± 0.0239 kcal/mol | 2.68 ± 0.12 kcal/mol | 451.8 ± 1.4 K | 370 ± 4 K | 242.7 ± 1.4 K
